Assay results reported in paper PMC7073080, “Characterization of Convergent Suppression by UCL-2077 (3-(Triphenylmethylaminomethyl)pyridine), Known to Inhibit Slow Afterhyperpolarization, of erg-Mediated Potassium Currents and Intermediate-Conductance Calcium-Activated Potassium Channels” (International Journal of Molecular Sciences, 2020).

Target: T1, erg-mediated K+ channel (Kerg, KV11.1) (Rattus norvegicus, UniProt O08962)
T1 construct: gene Kcnh2; native channel in pituitary GH3 cells
T1 sequence (O08962 1-1163): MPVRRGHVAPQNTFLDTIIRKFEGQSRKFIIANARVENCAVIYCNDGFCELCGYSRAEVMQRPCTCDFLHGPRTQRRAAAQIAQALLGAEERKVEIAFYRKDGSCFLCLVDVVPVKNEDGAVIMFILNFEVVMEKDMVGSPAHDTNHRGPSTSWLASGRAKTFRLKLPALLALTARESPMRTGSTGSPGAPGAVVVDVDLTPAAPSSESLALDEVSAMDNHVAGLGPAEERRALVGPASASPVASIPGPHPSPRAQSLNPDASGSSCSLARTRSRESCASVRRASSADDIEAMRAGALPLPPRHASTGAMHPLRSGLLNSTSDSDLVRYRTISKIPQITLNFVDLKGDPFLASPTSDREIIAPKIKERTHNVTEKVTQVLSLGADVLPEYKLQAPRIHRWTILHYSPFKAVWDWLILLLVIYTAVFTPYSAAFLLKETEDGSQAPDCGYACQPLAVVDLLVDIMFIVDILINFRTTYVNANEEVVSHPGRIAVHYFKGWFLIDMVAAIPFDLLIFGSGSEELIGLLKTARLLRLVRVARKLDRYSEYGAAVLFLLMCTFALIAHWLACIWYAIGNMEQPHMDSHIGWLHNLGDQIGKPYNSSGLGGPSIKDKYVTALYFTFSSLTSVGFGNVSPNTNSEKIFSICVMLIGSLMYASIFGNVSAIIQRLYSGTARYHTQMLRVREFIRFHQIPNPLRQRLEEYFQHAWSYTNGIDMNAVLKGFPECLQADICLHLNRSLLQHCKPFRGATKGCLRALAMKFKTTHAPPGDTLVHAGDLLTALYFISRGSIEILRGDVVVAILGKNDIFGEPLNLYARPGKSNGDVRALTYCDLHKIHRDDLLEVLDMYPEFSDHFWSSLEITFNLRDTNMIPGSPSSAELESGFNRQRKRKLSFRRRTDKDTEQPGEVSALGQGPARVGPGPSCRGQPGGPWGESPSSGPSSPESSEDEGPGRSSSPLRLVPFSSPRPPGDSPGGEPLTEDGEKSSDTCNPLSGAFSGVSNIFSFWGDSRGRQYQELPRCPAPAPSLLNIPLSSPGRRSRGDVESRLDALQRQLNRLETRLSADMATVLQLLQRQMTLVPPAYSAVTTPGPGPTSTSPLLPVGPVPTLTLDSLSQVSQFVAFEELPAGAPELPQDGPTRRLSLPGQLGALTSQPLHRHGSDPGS
Experiment: whole-cell patch clamp, concentration-response of IK(erg); KCNH2 siRNA knockdown
Format: cell-based
Conditions: gh3 cells

SMILES: c1ccc(C(NCc2cccnc2)(c2ccccc2)c2ccccc2)cc1 [UCL-2077, 3-(triphenylmethylaminomethyl)pyridine]
- IC50: 4.7 µM
